# Results reported in US20260226068A1, “IMIDAZOTRIAZINE IL-17A MODULATORS AND USES THEREOF” (DICE ALPHA, INC., priority 2023, published 2026).
# pIC50: −log10 of the molar value.
# How the values were obtained:
# IL-17A/F = target: T1, IL-17A/F (Homo sapiens, UniProt Q16552+Q96PD4); assay: IL-17A/F HEK-Blue cell assay (SEAP reporter); assay type: cell-based; conditions: HEK-Blue IL-17A reporter cells, IL17A/F 5 ng/mL, 20 hours, SEAP read at A630; read-out: HEK-Blue IL17AF (IC50 for IL-17A/F inhibition)
# T1 construct: purchased R&D Systems
# T1 sequence (Q16552 24-155): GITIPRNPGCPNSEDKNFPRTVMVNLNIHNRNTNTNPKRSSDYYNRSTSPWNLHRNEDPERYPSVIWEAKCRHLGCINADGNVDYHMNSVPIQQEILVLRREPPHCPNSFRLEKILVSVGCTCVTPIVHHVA
# T1 sequence (Q96PD4 31-163): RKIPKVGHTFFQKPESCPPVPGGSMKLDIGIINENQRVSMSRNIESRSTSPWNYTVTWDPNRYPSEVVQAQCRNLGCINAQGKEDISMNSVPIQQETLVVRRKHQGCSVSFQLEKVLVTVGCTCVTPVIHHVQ
# IL-17A/A = target: T2, IL-17A/A (Homo sapiens, UniProt Q16552); assay: IL-17A/A HEK-Blue cell assay (SEAP reporter); assay type: cell-based; conditions: HEK-Blue IL-17A reporter cells, IL17A/A 5 ng/mL, 20 hours, SEAP read at A630; read-out: HEK-Blue IL17AA (IC50 for IL-17A/A inhibition)
# T2 construct: purchased Genscript Z03228
# T2 sequence (Q16552 24-155): T1 sequence (Q16552 24-155)
Compound,pIC50 (IL-17A/F),pIC50 (IL-17A/A)
"CCc1nonc1C(=O)N[C@H](c1cn2nc(C[C@H]3C[C@@H](C(F)(F)F)CNC3=O)c(C3CCOCC3)nc2n1)C1CCC(F)(F)CC1 [Compound 149, N-((1S)-(4,4-difluorocyclohexyl)(2-(((3R,5R)-2-oxo-5-(trifluoromethyl)piperidin-3-yl)methyl)-3-(tetrahydro-2H-pyran-4-yl)imidazo[1,2-b][1,2,4]triazin-6-yl)methyl)-4-ethyl-1,2,5-oxadiazole-3-carboxamide]",6.00 to 7.00,> 7.00
"Cn1nccc1C(=O)N[C@H](c1cn2nc(C[C@H]3C[C@@H](C(F)(F)F)CNC3=O)c(C3CCOCC3)nc2n1)C1CCC(F)(F)CC1 [Compound 150, N-((1S)-(4,4-difluorocyclohexyl)(2-(((3R,5R)-2-oxo-5-(trifluoromethyl)piperidin-3-yl)methyl)-3-(tetrahydro-2H-pyran-4-yl)imidazo[1,2-b][1,2,4]triazin-6-yl)methyl)-1-methyl-1H-pyrazole-5-carboxamide]",6.00 to 7.00,> 7.00
"CCn1nccc1C(=O)N[C@H](c1cn2nc(C[C@H]3C[C@@H](C(F)(F)F)NC3=O)c(C3CCOCC3)nc2n1)C1CCC(F)(F)CC1 [Compound 151, N—((S)-(4,4-difluorocyclohexyl)(2-(((3R,5S)-2-oxo-5-(trifluoromethyl)pyrrolidin-3-yl)methyl)-3-(tetrahydro-2H-pyran-4-yl)imidazo[1,2-b][1,2,4]triazin-6-yl)methyl)-1-ethyl-1H-pyrazole-5-carboxamide]",6.00 to 7.00,> 7.00
"O=C(N[C@H](c1cn2nc(C[C@H]3C[C@@H](C(F)(F)F)CNC3=O)c(C3CCOCC3)nc2n1)C1CCC(F)(F)CC1)c1ccn[nH]1 [Compound 154, N-((1S)-(4,4-difluorocyclohexyl)(2-(((3R,5R)-2-oxo-5-(trifluoromethyl)piperidin-3-yl)methyl)-3-(tetrahydro-2H-pyran-4-yl)imidazo[1,2-b][1,2,4]triazin-6-yl)methyl)-1H-pyrazole-5-carboxamide]",< 6.00,> 7.00
"CCn1nccc1C(=O)N[C@H](c1cn2nc(C[C@H]3C[C@H](C(F)(F)F)CNC3=O)c(C(C)(C)C)nc2n1)C1CCC(F)(F)CC1 [Compound 156, N-((1S)-(4,4-difluorocyclohexyl)(3-(tert-butyl)-2-(((3R,5S)-2-oxo-5-(trifluoromethyl)piperidin-3-yl)methyl)imidazo[1,2-b][1,2,4]triazin-6-yl)methyl)-1-ethyl-1H-pyrazole-5-carboxamide]",< 6.00,> 7.00
"CCn1nccc1C(=O)N[C@H](c1cn2nc(C[C@H]3C[C@H](C(F)(F)F)CNC3=O)c(C(C)(C)F)nc2n1)C1CCC(F)(F)CC1 [Compound 161, N-((1S)-(4,4-difluorocyclohexyl)(3-(2-fluoropropan-2-yl)-2-(((3R,5S)-2-oxo-5-(trifluoromethyl)piperidin-3-yl)methyl)imidazo[1,2-b][1,2,4]triazin-6-yl)methyl)-1-ethyl-1H-pyrazole-5-carboxamide]",< 6.00,> 7.00
"CCn1nccc1C(=O)N[C@H](c1cn2nc(C[C@H]3C[C@@H](C(F)(F)F)CNC3=O)c(N3CCC4(CCOCC4)C3)nc2n1)C1CCC(F)(F)CC1 [Compound 162, N—((S)-(4,4-difluorocyclohexyl)(2-(((3R,5R)-2-oxo-5-(trifluoromethyl)piperidin-3-yl)methyl)-3-(8-oxa-2-azaspiro[4.5]decan-2-yl)imidazo[1,2-b][1,2,4]triazin-6-yl)methyl)-1-ethyl-1H-pyrazole-5-carboxamide]",6.00 to 7.00,> 7.00
"CCn1nccc1C(=O)N[C@H](c1cn2nc(C[C@H]3C[C@@H](C(F)(F)F)CNC3=O)c(C3(C)CCOCC3)nc2n1)C1CCC(F)(F)CC1 [Compound 164, N-((1S)-(4,4-difluorocyclohexyl)(3-(4-methyltetrahydro-2H-pyran-4-yl)-2-(((3R,5R)-2-oxo-5-(trifluoromethyl)piperidin-3-yl)methyl)imidazo[1,2-b][1,2,4]triazin-6-yl)methyl)-1-ethyl-1H-pyrazole-5-carboxamide]",6.00 to 7.00,> 7.00
"CCc1nc2nc([C@@H](NC(=O)c3ccnn3CC)C3CCC(F)(F)CC3)cn2nc1C[C@H]1C[C@@H](C(F)(F)F)CNC1=O [Compound 167, N-((1S)-(4,4-difluorocyclohexyl)(3-ethyl-2-(((3R,5R)-2-oxo-5-(trifluoromethyl)piperidin-3-yl)methyl)imidazo[1,2-b][1,2,4]triazin-6-yl)methyl)-1-ethyl-1H-pyrazole-5-carboxamide]",6.00 to 7.00,> 7.00
"CCn1nccc1C(=O)N[C@H](c1cn2nc(C[C@H]3C[C@@H](C(F)(F)F)CNC3=O)c(CC3COC3)nc2n1)C1CCC(F)(F)CC1 [Compound 168, N-((1S)-(4,4-difluorocyclohexyl)(3-(oxetan-3-ylmethyl)-2-(((3R,5R)-2-oxo-5-(trifluoromethyl)piperidin-3-yl)methyl)imidazo[1,2-b][1,2,4]triazin-6-yl)methyl)-1-ethyl-1H-pyrazole-5-carboxamide]",6.00 to 7.00,> 7.00
"CCn1nccc1C(=O)N[C@H](c1cn2nc(C[C@H]3C[C@@H](C(F)(F)F)CNC3=O)c(C(C)(C)C3CCOCC3)nc2n1)C1CCC(F)(F)CC1 [Compound 169, N-((1S)-(4,4-difluorocyclohexyl)(2-(((3R,5R)-2-oxo-5-(trifluoromethyl)piperidin-3-yl)methyl)-3-(2-(tetrahydro-2H-pyran-4-yl)propan-2-yl)imidazo[1,2-b][1,2,4]triazin-6-yl)methyl)-1-ethyl-1H-pyrazole-5-carboxamide]",< 6.00,> 7.00
"CCn1nccc1C(=O)N[C@H](c1cn2nc(C[C@H]3C[C@@H](C(F)(F)F)CNC3=O)c(CC3CCOC3)nc2n1)C1CCC(F)(F)CC1 (stereo partly drawn) [Compound 170, N-((1S)-(4,4-difluorocyclohexyl)(2-(((3R,5R)-2-oxo-5-(trifluoromethyl)piperidin-3-yl)methyl)-3-((tetrahydrofuran-3-yl)methyl)imidazo[1,2-b][1,2,4]triazin-6-yl)methyl)-1-ethyl-1H-pyrazole-5-carboxamide]",6.00 to 7.00,> 7.00

# Second part, the compound after the results:
pIC50 (IL-17A/F),pIC50 (IL-17A/A),Compound
6.00 to 7.00,> 7.00,"CCn1nccc1C(=O)N[C@H](c1cn2nc(C[C@H]3C[C@@H](C(F)(F)F)NC3=O)c(C3CCOCC3)nc2n1)[C@H]1CC[C@H](C)CC1 [Compound 152, 1-ethyl-N—((S)-((1R,4S)-4-methylcyclohexyl)(2-(((3R,5S)-2-oxo-5-(trifluoromethyl)pyrrolidin-3-yl)methyl)-3-(tetrahydro-2H-pyran-4-yl)imidazo[1,2-b][1,2,4]triazin-6-yl)methyl)-1H-pyrazole-5-carboxamide]"
6.00 to 7.00,> 7.00,"CCn1nccc1C(=O)N[C@H](c1cn2nc(C[C@H]3C[C@H](C(F)(F)F)CNC3=O)c(C3CCOCC3)nc2n1)[C@H]1CC[C@H](C)CC1 [Compound 155, 1-ethyl-N-((1S)-((1r,4S)-4-methylcyclohexyl)(2-(((3R,5S)-2-oxo-5-(trifluoromethyl)piperidin-3-yl)methyl)-3-(tetrahydro-2H-pyran-4-yl)imidazo[1,2-b][1,2,4]triazin-6-yl)methyl)-1H-pyrazole-5-carboxamide]"
> 7.00,> 7.00,"CCn1nccc1C(=O)N[C@H](c1cn2nc(C[C@H]3C[C@@H](C(F)(F)F)CNC3=O)c(N3CCO[C@H](C)C3)nc2n1)[C@H]1CC[C@H](C)CC1 [Compound 157, 1-ethyl-N—((S)-((1r,4S)-4-methylcyclohexyl)(3-((R)-2-methylmorpholino)-2-(((3R,5R)-2-oxo-5-(trifluoromethyl)piperidin-3-yl)methyl)imidazo[1,2-b][1,2,4]triazin-6-yl)methyl)-1H-pyrazole-5-carboxamide]"
6.00 to 7.00,> 7.00,"CCn1nccc1C(=O)N[C@H](c1cn2nc(C[C@H]3C[C@@H](C(F)(F)F)CNC3=O)c(N3CCO[C@@H](C)C3)nc2n1)[C@H]1CC[C@H](C)CC1 [Compound 158, 1-ethyl-N—((S)-((1r,4S)-4-methylcyclohexyl)(3-((S)-2-methylmorpholino)-2-(((3R,5R)-2-oxo-5-(trifluoromethyl)piperidin-3-yl)methyl)imidazo[1,2-b][1,2,4]triazin-6-yl)methyl)-1H-pyrazole-5-carboxamide]"
6.00 to 7.00,> 7.00,"CCn1nccc1C(=O)N[C@H](c1cn2nc(C[C@H]3C[C@@H](C(F)(F)F)CNC3=O)c(CC3CCCO3)nc2n1)C1CCC(F)(F)CC1 (stereo partly drawn) [Compound 171, N-((1S)-(4,4-difluorocyclohexyl)(2-(((3R,5R)-2-oxo-5-(trifluoromethyl)piperidin-3-yl)methyl)-3-((tetrahydrofuran-2-yl)methyl)imidazo[1,2-b][1,2,4]triazin-6-yl)methyl)-1-ethyl-1H-pyrazole-5-carboxamide]"
6.00 to 7.00,> 7.00,"CCn1nccc1C(=O)N[C@H](c1cn2nc(C[C@H]3C[C@@H](C(F)(F)F)CNC3=O)c(CC3CCCCO3)nc2n1)C1CCC(F)(F)CC1 (stereo partly drawn) [Compound 172, N-((1S)-(4,4-difluorocyclohexyl)(2-(((3R,5R)-2-oxo-5-(trifluoromethyl)piperidin-3-yl)methyl)-3-((tetrahydro-2H-pyran-2-yl)methyl)imidazo[1,2-b][1,2,4]triazin-6-yl)methyl)-1-ethyl-1H-pyrazole-5-carboxamide]"
